14 compounds from patent US10150760B2, “Compounds for use in preparing heterocyclic triazole agonists of the APJ receptor” (AMGEN INC., priority 2016, dated 2018) can be followed below.

Molecules are shown by their SMILES.

One may read the EC50 as the concentration giving half of the maximal effect.

Chain of human APJ receptor (P35414 whole entry): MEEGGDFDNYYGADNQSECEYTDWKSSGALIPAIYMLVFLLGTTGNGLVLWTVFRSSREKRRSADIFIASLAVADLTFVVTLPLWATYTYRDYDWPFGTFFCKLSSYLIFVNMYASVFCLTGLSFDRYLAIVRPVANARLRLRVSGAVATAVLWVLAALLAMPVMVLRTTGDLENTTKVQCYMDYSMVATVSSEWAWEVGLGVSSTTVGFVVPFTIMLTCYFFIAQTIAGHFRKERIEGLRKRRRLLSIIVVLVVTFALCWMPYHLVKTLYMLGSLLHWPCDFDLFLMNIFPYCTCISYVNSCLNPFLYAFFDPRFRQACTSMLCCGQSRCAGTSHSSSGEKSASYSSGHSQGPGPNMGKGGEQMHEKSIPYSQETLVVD

For this assay, the target named is human APJ receptor (Homo sapiens (Human), UniProt P35414). The assay can be described thus: [35S]GTPγS binding assay on membranes from CHO cells stably expressing human APJ receptor. It is filed as biochemical. To be noted: read-out: Activity hAPJ SPA EC50 IP. The procedure:
The human APJ receptor was cloned by polymerase chain reaction and the gene encoding the receptor was subcloned in pFLAG-CMV™-3 expression vector (Sigma, Saint Louis, Mo. USA) in-house at Amgen. A GTPγS binding assay was performed on membranes prepared from CHO cells stably expressing human APJ receptor. The optimum experimental conditions for the concentrations of GDP, MgCl2, and NaCl in the assay buffer were initially determined. The assay was performed in assay buffer [20 mM HEPES, pH 7.5, 5 mM MgCl2, and 0.1% (w/v) BSA with 200 mM NaCl, 3 μM GDP] and membranes expressing human APJ receptor/well along with WGA PS beads. The reaction was initiated by addition of 0.2 nM [^35S]GTPγS (Perkin Elmer Life and Analytical Sciences, Waltham USA) in the absence or presence of various ligands and incubated at RT for 90 min. Nonspecific binding was determined in the presence of 100 μM GTPγS and was always less than 0.2% of total binding. All the results presented are means of several independent experiments and analyzed by non-linear regression methods using commercially available program Prism (GraphPad, San Diego, Calif.) to obtain EC50 detailed in Table 38.
On the technique in general: GTPγS is a poorly hydrolysed GTP analogue; its binding reports G protein activation.
As for `COc1cccc(OC)c1-n1c(NS(=O)(=O)[C@@H](C)[C@H](C)c2ncc(C)cn2)nnc1[C@H]1OCC[C@H]1C` (single isomer, unassigned) [Example 71.0, (2S,3R)-N-(4-(2,6-dimethoxyphenyl)-5-((2R,3S)-3-methyltetrahydrofuran-2-yl)-4H-1,2,4-triazol-3-yl)-3-(5-methylpyrimidin-2-yl)butane-2-sulfonamide or (2S,3R)-N-(4-(2,6-dimethoxyphenyl)-5-((2S,3R)-3-methyltetrahydrofuran-2-yl)-4H-1,2,4-triazol-3-yl)-3-(5-methylpyrimidin-2-yl)butane-2-sulfonamide], the concentration for a half-maximal effect (EC50) was 450 nM.

Turning to `COc1cccc(OC)c1-n1c(NS(=O)(=O)[C@@H](C)[C@H](C)c2ncc(Cl)cn2)nnc1[C@H]1OCC[C@H]1C` (single isomer, unassigned) [Example 75.0, (2S,3R)-3-(5-chloropyrimidin-2-yl)-N-(4-(2,6-dimethoxyphenyl)-5-((2R,3S)-3-methyltetrahydrofuran-2-yl)-4H-1,2,4-triazol-3-yl)butane-2-sulfonamide or (2S,3R)-3-(5-chloropyrimidin-2-yl)-N-(4-(2,6-dimethoxyphenyl)-5-((2S,3R)-3-methyltetrahydrofuran-2-yl)-4H-1,2,4-triazol-3-yl)butane-2-sulfonamide], the half-maximal effective concentration (EC50) was 210 nM.

Regarding `COc1cccc(OC)c1-n1c(NS(=O)(=O)[C@@H](C)[C@H](C)c2ncc(Cl)cn2)nnc1[C@H]1OCC[C@H]1C` (single isomer, unassigned) [Example 76.0, (2S,3R)-3-(5-chloropyrimidin-2-yl)-N-(4-(2,6-dimethoxyphenyl)-5-((2R,3S)-3-methyltetrahydrofuran-2-yl)-4H-1,2,4-triazol-3-yl)butane-2-sulfonamide or (2S,3R)-3-(5-chloropyrimidin-2-yl)-N-(4-(2,6-dimethoxyphenyl)-5-((2S,3R)-3-methyltetrahydrofuran-2-yl)-4H-1,2,4-triazol-3-yl)butane-2-sulfonamide], the concentration for a half-maximal effect (EC50) was determined as 1.4 nM.

`COc1ncnc(OC)c1-n1c(NS(=O)(=O)[C@@H](C)[C@H](OC)c2ncc(Cl)cn2)nnc1[C@H]1CCCO1` (single isomer, unassigned) [Example 79.0, (1R,2S)-1-(5-chloropyrimidin-2-yl)-N-(4-(4,6-dimethoxypyrimidin-5-yl)-5-((S)-tetrahydrofuran-2-yl)-4H-1,2,4-triazol-3-yl)-1-methoxypropane-2-sulfonamide or (1R,2S)-1-(5-chloropyrimidin-2-yl)-N-(4-(4,6-dimethoxypyrimidin-5-yl)-5-((R)-tetrahydrofuran-2-yl)-4H-1,2,4-triazol-3-yl)-1-methoxypropane-2-sulfonamide]: the EC50 worked out at 110 nM.

As to `COc1ncnc(OC)c1-n1c(NS(=O)(=O)[C@@H](C)[C@H](C)c2ncc(Cl)cn2)nnc1[C@H]1CCCO1` (single isomer, unassigned) [Example 81.0, (2S,3R)-3-(5-chloropyrimidin-2-yl)-N-(4-(4,6-dimethoxypyrimidin-5-yl)-5-((S)-tetrahydrofuran-2-yl)-4H-1,2,4-triazol-3-yl)butane-2-sulfonamide or (2S,3R)-3-(5-chloropyrimidin-2-yl)-N-(4-(4,6-dimethoxypyrimidin-5-yl)-5-((R)-tetrahydrofuran-2-yl)-4H-1,2,4-triazol-3-yl)butane-2-sulfonamide], the 50% effective concentration (EC50) came out at 82 nM.

Regarding `COc1ncnc(OC)c1-n1c(NS(=O)(=O)[C@@H](C)[C@H](C)c2ncc(Cl)cn2)nnc1[C@H]1CCCO1` (single isomer, unassigned) [Example 82.0, (2S,3R)-3-(5-chloropyrimidin-2-yl)-N-(4-(4,6-dimethoxypyrimidin-5-yl)-5-((S)-tetrahydrofuran-2-yl)-4H-1,2,4-triazol-3-yl)butane-2-sulfonamide or (2S,3R)-3-(5-chloropyrimidin-2-yl)-N-(4-(4,6-dimethoxypyrimidin-5-yl)-5-((R)-tetrahydrofuran-2-yl)-4H-1,2,4-triazol-3-yl)butane-2-sulfonamide], the 50% effective concentration (EC50) was found to be 3 nM.

`COc1cccc(OC)c1-n1c(NS(=O)(=O)[C@@H](C)[C@H](OC)c2ncc(Cl)cn2)nnc1[C@H]1CCCCO1` (single isomer, unassigned) [Example 83.0, (1R,2S)-1-(5-chloropyrimidin-2-yl)-N-(4-(2,6-dimethoxyphenyl)-5-((S)-tetrahydro-2H-pyran-2-yl)-4H-1,2,4-triazol-3-yl)-1-methoxypropane-2-sulfonamide or (1R,2S)-1-(5-chloropyrimidin-2-yl)-N-(4-(2,6-dimethoxyphenyl)-5-((R)-tetrahydro-2H-pyran-2-yl)-4H-1,2,4-triazol-3-yl)-1-methoxypropane-2-sulfonamide]: the EC50 worked out at 10 nM.

`COc1cccc(OC)c1-n1c(NS(=O)(=O)[C@@H](C)[C@H](OC)c2ncc(Cl)cn2)nnc1[C@H]1CCCCO1` (single isomer, unassigned) [Example 84.0, (1R,2S)-1-(5-chloropyrimidin-2-yl)-N-(4-(2,6-dimethoxyphenyl)-5-((S)-tetrahydro-2H-pyran-2-yl)-4H-1,2,4-triazol-3-yl)-1-methoxypropane-2-sulfonamide or (1R,2S)-1-(5-chloropyrimidin-2-yl)-N-(4-(2,6-dimethoxyphenyl)-5-((R)-tetrahydro-2H-pyran-2-yl)-4H-1,2,4-triazol-3-yl)-1-methoxypropane-2-sulfonamide]: the half-maximal effective concentration (EC50) stood at 0.8 nM.

Regarding `COc1cccc(OC)c1-n1c(NS(=O)(=O)[C@@H](C)[C@H](C)c2ncc(C)cn2)nnc1[C@H]1CCCCO1` (single isomer, unassigned) [Example 85.0, (2S,3R)-N-(4-(2,6-dimethoxyphenyl)-5-((S)-tetrahydro-2H-pyran-2-yl)-4H-1,2,4-triazol-3-yl)-3-(5-methylpyrimidin-2-yl)butane-2-sulfonamide or (2S,3R)-N-(4-(2,6-dimethoxyphenyl)-5-((R)-tetrahydro-2H-pyran-2-yl)-4H-1,2,4-triazol-3-yl)-3-(5-methylpyrimidin-2-yl)butane-2-sulfonamide], the EC50 amounted to 9.6 nM.

In the case of `COc1cccc(OC)c1-n1c(NS(=O)(=O)[C@@H](C)[C@H](C)c2ncc(C)cn2)nnc1[C@H]1CCCCO1` (single isomer, unassigned) [Example 86.0, (2S,3R)-N-(4-(2,6-dimethoxyphenyl)-5-((S)-tetrahydro-2H-pyran-2-yl)-4H-1,2,4-triazol-3-yl)-3-(5-methylpyrimidin-2-yl)butane-2-sulfonamide or (2S,3R)-N-(4-(2,6-dimethoxyphenyl)-5-((R)-tetrahydro-2H-pyran-2-yl)-4H-1,2,4-triazol-3-yl)-3-(5-methylpyrimidin-2-yl)butane-2-sulfonamide], the concentration giving a half-maximal response (EC50) was determined as 2.1 nM.

On to `COc1cccc(OC)c1-n1c(NS(=O)(=O)[C@@H](C)[C@H](C)c2ncc(Cl)cn2)nnc1[C@H]1CCCCO1` (single isomer, unassigned) [Example 87.0, (2S,3R)-3-(5-chloropyrimidin-2-yl)-N-(4-(2,6-dimethoxyphenyl)-5-((S)-tetrahydro-2H-pyran-2-yl)-4H-1,2,4-triazol-3-yl)butane-2-sulfonamide or (2S,3R)-3-(5-chloropyrimidin-2-yl)-N-(4-(2,6-dimethoxyphenyl)-5-((S)-tetrahydro-2H-pyran-2-yl)-4H-1,2,4-triazol-3-yl)butane-2-sulfonamide], for which the EC50 is 2.4 nM.

With `COc1cccc(OC)c1-n1c(NS(=O)(=O)[C@@H](C)[C@H](C)c2ncc(Cl)cn2)nnc1[C@H]1CCCCO1` (single isomer, unassigned) [Example 88.0, (2S,3R)-3-(5-chloropyrimidin-2-yl)-N-(4-(2,6-dimethoxyphenyl)-5-((S)-tetrahydro-2H-pyran-2-yl)-4H-1,2,4-triazol-3-yl)butane-2-sulfonamide or (2S,3R)-3-(5-chloropyrimidin-2-yl)-N-(4-(2,6-dimethoxyphenyl)-5-((S)-tetrahydro-2H-pyran-2-yl)-4H-1,2,4-triazol-3-yl)butane-2-sulfonamide], the concentration for a half-maximal effect (EC50) was 0.42 nM.

Consider `COc1cccc(OC)c1-n1c(NS(=O)(=O)[C@@H](C)[C@H](C)c2cnc(C)cn2)nnc1[C@H]1CCCO1` (single isomer, unassigned) [Example 89.0, (2S,3R)-N-(4-(2,6-dimethoxyphenyl)-5-((S)-tetrahydrofuran-2-yl)-4H-1,2,4-triazol-3-yl)-3-(5-methylpyrazin-2-yl)butane-2-sulfonamide or (2S,3R)-N-(4-(2,6-dimethoxyphenyl)-5-((R)-tetrahydrofuran-2-yl)-4H-1,2,4-triazol-3-yl)-3-(5-methylpyrazin-2-yl)butane-2-sulfonamide], for which the EC50 is 23 nM.

As to `COc1cccc(OC)c1-n1c(NS(=O)(=O)[C@@H](C)[C@H](C)c2cnc(C)cn2)nnc1[C@H]1CCCO1` (single isomer, unassigned) [Example 90.0, (2S,3R)-N-(4-(2,6-dimethoxyphenyl)-5-((S)-tetrahydrofuran-2-yl)-4H-1,2,4-triazol-3-yl)-3-(5-methylpyrazin-2-yl)butane-2-sulfonamide or (2S,3R)-N-(4-(2,6-dimethoxyphenyl)-5-((R)-tetrahydrofuran-2-yl)-4H-1,2,4-triazol-3-yl)-3-(5-methylpyrazin-2-yl)butane-2-sulfonamide], the EC50 is 370 nM.
